Source: patent US20110053900A1, “PROGESTERONE ANTAGONISTS SUCH AS CDB-4124 IN THE TREATMENT OF BREAST CANCER” (Repros Therapeutics inc, priority 2008, published 2011)

Columns and labels:
[1] = tested on: DMBA-induced tumors of the rat mammary gland; assay: DMBA-induced breast tumors: tumor number and tumor type at necropsy; assay type: in vivo; details: 10 mg/kg s.c. daily, 28 days
Procedure: (§1) To induce breast tumors, Sprague-Dawley female rats were given 10 mg/kg body weight of DMBA at 50 days of age. One group of 14 rats (Group 2) received sesame oil at 50 days of age instead of DMBA to serve as the no-DMBA controls. Animals were weighed and palpated weekly along the milk line for any sign of lesions or swellings. Tumor nodules were noted and measured weekly in two dimensions with calipers. When tumors grew to a size of 10-12 mm in any dimension, the individual animal was randomized into one of 14 groups. Tumors appeared as soon as 39 days after oral gavage and as late as 194 days (latter individual not included in study). The mean latency period for tumor appearance was 106±30 days.
(§2) Animals were treated for 28 days on the following schedule. Group 1 received daily subcutaneous (s.c.) injections of vehicle (10% ethanol in sesame oil). Group 2 (no DMBA control group-no tumors expected) received vehicle on a schedule decided beforehand to simulate initiation of treatment over a three-month time period. […] Groups 5 through 9 received 20 mg/kg, 10 mg/kg, 2 mg/kg, 1 mg/kg and 0.1 mg/kg of CDB-4124, respectively. Groups 10 through 14 mirrored the treatment given 5 through 9 except that 10 mg/kg of micronized progesterone was also added as a component to compositions for injections.
(§3) Animals were sacrificed 3-5 days after the end of the 28-day treatment period, blood was drawn, and tumors were removed, weighed, measured, inspected, and portions frozen and/or placed in 10% phosphate buffered formalin for histopathology. The tissue samples were cut and stained with hematoxylin and eosin and were evaluated for histopathological classification.
Histologically, four types of tumors were identified (Table 2): adenocarcinomas (ACAs), papillary carcinomas (PCAs), a fibrosarcoma, and fibroadenomas or adenofibromas (FA or AF), the latter two tumor types were not considered to represent frank malignancies.

[2] = tested on: estrogen receptor (ER); assay: Expression of estrogen receptor in tumors (IHC); assay type: in vivo, rat; details: 10 mg/kg
Procedure: (§4) The tumors that were evaluated for proliferation and apoptosis were also assessed for expression of estrogen and progesterone receptors by immunohistochemistry (IHC). The percentage of cells positive for ER and PR was determined and analyzed. Tumors were grouped into four different categories: tumors with 0% of cells expressing ER, tumors with 10% of cells expressing ER, tumors with 15 to 30% of cells expressing ER and tumors with 30-50% of cells expressing ER. In general, untreated tumors consistently expressed ER. Out of 12 tumors analyzed, all 12 expressed ER. Four out of these 12 tumors contained 30-50% ER-positive cells.

[3] = tested on: progesterone receptor (PR); assay: Expression of progesterone receptor in tumors (IHC); assay type: in vivo, rat; details: 10 mg/kg
Procedure: as §4
Untreated tumors consistently expressed PR (12/12 tumors). In general, untreated tumors expressed both receptors, ER and PR, therefore it is possible that many malignant tumors are expressors of these two transcription factors. […] In general, long term treatment with CDB-4124 tends to drive down the level of PR in tumors, whereas progesterone tends to work in the opposite direction. Thus, tumors maintain progesterone responsiveness in the presence of progesterone.

[4] = tested on: DMBA-induced tumors of the rat mammary gland; assay: DMBA-induced breast tumors: tumor progression (growth pattern); assay type: in vivo; details: 10 mg/kg
Procedure: as §1, §2
In order to evaluate the effects of CDB-4124, RU486 and progesterone on tumor development and progression, growth kinetics and tumor size were monitored during the treatment period. Individual tumors from animals with tumors in the study were measured weekly in two dimensions with calipers. The data is corrected to exclude the non-malignant FA/AF tumor types. Tumors that increased in cross-sectional area by at least 33% over the 28-day inspection period were considered to be growing (FIG. 1, black boxes). Those that decreased by approximately 33% were considered to be regressing (FIG. 1, white boxes). Others were considered to be static (FIG. 1, gray boxes).

[5] = tested on: rat tumors (proliferation marker Ki-67); assay: Tumor proliferation by Ki-67 immunohistochemistry; assay type: in vivo; details: 10 mg/kg
From the text: In order to assess the effects of progestins and anti-progestins on cell proliferation, tissue sections derived from 46 individual rat tumors from treated an control animals were examined by measuring expression of the proliferation marker Ki-67 using the Ki-67 antibody (NeoMarkers, Fremont, Calif.) and immunohistochemistry. Despite the reduction in size of many tumors in Groups 3 and 6 following treatment in Groups 3 and 6 making them too small to be re-cut, 7-12 ACAs from Groups 1, 3, 4, 6 and 11 were re-cut. The results of proliferation experiments, in which proliferation was measured as a percentage of cells expressing Ki-67, are summarized in Table 4: […]

[6] = Serum corticosterone by ELISA; assay type: in vivo, rat; details: exogenous progesterone 10 mg/kg, after 21 days of treatment, paired groups
Procedure: (§5) The animals were assessed three times for their levels of progesterone: initially, when they were about to go on treatment; a second time after 21 days of treatment; and finally after treatment at sacrifice which was 2-4 days after the last s.c. injection. All blood samples were taken by heart puncture; serum was prepared and held frozen at −40° C. The levels of the steroid hormones progesterone, cortisol, and corticosterone were determined by ELISA.
(§6) The concentrations of steroid hormones were determined three times during the study: before the beginning of treatments, after 21 days of treatment and finally after treatment at sacrifice which was 2-4 days after the last s.c. injection. All samples were taken by heart puncture. Serum was obtained and held frozen at −40° C. The levels of steroid hormones were determined by ELISA.
Corticosterone is the most abundant glucocorticoid in rats. The effects of the SPRMs on cortisol may be secondary to strong effects on corticosterone. […] The levels of corticosterone were 10-40 times higher than the levels of cortisol. However, almost no difference between groups with respect to mean corticosterone levels was observed. […] There was no statistical difference in levels of corticosterone between animals with tumors and without tumors at either 21-days (p=0.94, t-test, two-tailed) or at sacrifice (p=0.37, t-test, two-tailed).

[7] = tested on: rat tumors; assay: Apoptosis in tumors; assay type: in vivo; details: 10 mg/kg
Procedure: Apoptosis was evaluated in the same tumors by an apoptosis hybridization kit (Oncor, Gaithersburg, Md.). The cells in apoptosis were evaluated in the peripheral areas of the tumors and far from necrosis. At least 1,000 cells per tumor section were evaluated.

[8] = Serum progesterone by ELISA; assay type: in vivo, rat
Procedure: as §5, §6

[9] = tested on: DMBA-induced tumors of the rat mammary gland; assay: DMBA-induced breast tumors: tumor number, size and tumor burden at necropsy; assay type: in vivo; details: 10 mg/kg s.c. daily, 28 days
Procedure: as §1, §2, §3
The results in Table 3 are those for ACA, PCA and mixed ACA/PCA, but the FA or AF tumors are excluded.

CC(=O)[C@H]1CC[C@H]2[C@@H]3CCC4=CC(=O)CC[C@]4(C)[C@H]3CC[C@]12C [Progesterone, progesterone]
ACA + PCA per rat [1]: 4.90 | ACA per rat [1]: 3.3 | FA/AF no. [1]: 3 | Incidence of tumors (%) [1]: (100) % | Incidence of tumors (rats with tumors/rats) [1]: 10/10 | PCA per rat [1]: 1.4 | ACA + PCA per rat ([1]; listed as progesterone): ~5 | number of cells expressing ER in tumors (in words) [2]: increased number of cells expressing ER | PR expression in tumors (in words) [3]: tended to raise PR expression | proportion of tumors regressing ([4]; decrease of cross-sectional area by about 33% over 28 days): 8% | proportion of the growing tumors ([4]; increase of cross-sectional area by at least 33% over 28 days): 80% | Proliferating tumor cells by Ki-67, % cells positive [5]: 25.7 ± 5.8% | effect on serum corticosterone (in words) [6]: levels of corticosterone were lowered | Apoptosis, % cells positive [7]: 1.28 ± 0.51% | Serum Progesterone, Before TX (mean) ([8]; 10 mg/kg group, before treatment): 51 ng/mL | Serum Progesterone, During TX (mean) ([8]; 10 mg/kg, after 21 days of treatment): 55 ng/mL | Serum Progesterone, After TX (mean) ([8]; 10 mg/kg, at sacrifice 2-4 days after the last s.c. injection): 54 ng/mL | Tumor Burden [9]: 7.34 g/rat | Tumor Weight mean [9]: 1.5 g | Tumor Weight median [9]: 0.5 g | Number of Tumors ([9]; FA/AF excluded): 49
